Test results as given in PubChem BioAssay (NCI).
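48-hour exposure; five concentrations; linearly interpolated endpoints. Here, GI50 denotes the concentration required for 50% inhibition of growth. TGI: total growth inhibition.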

What was measured:
Experiment in all cases: NCI tumour cell line growth inhibition, 48 h
[1] = tested on: OVCAR-8 ovarian
[2] = tested on: EKVX NSCLC
[3] = tested on: TK-10 renal
[4] = tested on: DU-145 prostate
[5] = tested on: LOX IMVI melanoma
[6] = tested on: UACC-62 melanoma
[7] = tested on: HCC-2998 colon
[8] = tested on: SK-MEL-2 melanoma
[9] = tested on: SK-MEL-5 melanoma
[10] = tested on: HT29 colon
[11] = tested on: SR leukemia
[12] = tested on: U251 CNS
[13] = tested on: SF-295 CNS
[14] = tested on: SK-OV-3 ovarian
[15] = tested on: OVCAR-3 ovarian
[16] = tested on: MCF7 breast
[17] = tested on: A498 renal
[18] = tested on: PC-3 prostate
[19] = tested on: SF-539 CNS
[20] = tested on: SNB-19 CNS
[21] = tested on: HOP-92 NSCLC
[22] = tested on: UACC-257 melanoma
[23] = tested on: MOLT-4 leukemia
[24] = tested on: OVCAR-4 ovarian
[25] = tested on: HS 578T breast
[26] = tested on: COLO 205 colon
[27] = tested on: SF-268 CNS
[28] = tested on: UO-31 renal
[29] = tested on: SN12C renal
[30] = tested on: CAKI-1 renal
[31] = tested on: MDA-MB-435
[32] = tested on: ACHN renal
[33] = tested on: MDA-MB-231 breast
[34] = tested on: A549 NSCLC
[35] = tested on: OVCAR-5 ovarian
[36] = tested on: HL-60(TB) leukemia
[37] = tested on: IGROV1 ovarian
[38] = tested on: K-562 leukemia
[39] = tested on: NCI-H23 lung
[40] = tested on: KM12 colon
[41] = tested on: 786-0 renal
[42] = tested on: SK-MEL-28 melanoma
[43] = tested on: NCI-H226 lung
[44] = tested on: SNB-75 CNS
[45] = tested on: CCRF-CEM leukemia
[46] = tested on: SW-620 colon
[47] = tested on: RPMI-8226 leukemia
[48] = tested on: BT-549 breast
[49] = tested on: MALME-3M melanoma
[50] = tested on: HCT-116 colon
[51] = tested on: HOP-62 NSCLC
[52] = tested on: NCI-H522 lung
[53] = tested on: RXF 393 renal
[54] = tested on: NCI/ADR-RES ovarian
[55] = tested on: M14 melanoma
[56] = tested on: NCI-H460 lung
[57] = tested on: HCT-15 colon

Structure (SMILES): O=C1C(Cl)=C(Nc2ccccc2)C(=O)c2ccccc21
- GI50 [1]: 1.71 µM
- TGI [1]: 3.2 µM
- GI50 [2]: 2.21 µM
- TGI [2]: 5.38 µM
- GI50 [3]: 11 µM
- TGI [3]: > 100 µM
- GI50 [4]: 9.34 µM
- TGI [4]: 22 µM
- GI50 [5]: 0.856 µM
- TGI [5]: 2.86 µM
- GI50 [6]: 1.72 µM
- TGI [6]: 3.3 µM
- GI50 [7]: 2.15 µM
- TGI [7]: 4.29 µM
- GI50 [8]: 1.87 µM
- TGI [8]: 3.69 µM
- GI50 [9]: 1.5 µM
- TGI [9]: 2.89 µM
- GI50 [10]: 2.27 µM
- TGI [10]: 4.72 µM
- GI50 [11]: 0.992 µM
- TGI [11]: > 100 µM
- GI50 [12]: 1.8 µM
- TGI [12]: 3.24 µM
- GI50 [13]: 10.6 µM
- TGI [13]: 24.1 µM
- GI50 [14]: 5.43 µM
- TGI [14]: 18.7 µM
- GI50 [15]: 1.67 µM
- TGI [15]: 3.15 µM
- GI50 [16]: 1.5 µM
- TGI [16]: 3.53 µM
- GI50 [17]: 8.93 µM
- TGI [17]: 35.3 µM
- GI50 [18]: 3.61 µM
- TGI [18]: 22.1 µM
- GI50 [19]: 5.41 µM
- TGI [19]: 17.5 µM
- GI50 [20]: 2.22 µM
- TGI [20]: 5.07 µM
- GI50 [21]: 1.28 µM
- TGI [21]: 2.64 µM
- GI50 [22]: 1.83 µM
- TGI [22]: 3.3 µM
- GI50 [23]: 3.34 µM
- TGI [23]: > 100 µM
- GI50 [24]: 1.63 µM
- TGI [24]: 3 µM
- GI50 [25]: 3.05 µM
- TGI [25]: 30.5 µM
- GI50 [26]: 1.88 µM
- TGI [26]: 3.77 µM
- GI50 [27]: 1.69 µM
- TGI [27]: 3.27 µM
- GI50 [28]: 1.41 µM
- TGI [28]: 2.97 µM
- GI50 [29]: 1.82 µM
- TGI [29]: 3.59 µM
- GI50 [30]: 1.73 µM
- TGI [30]: 3.13 µM
- GI50 [31]: 1.8 µM
- TGI [31]: 3.27 µM
- GI50 [32]: 1.63 µM
- TGI [32]: 3.13 µM
- GI50 [33]: 1.58 µM
- TGI [33]: 3.3 µM
- GI50 [34]: 15.5 µM
- TGI [34]: 42.2 µM
- GI50 [35]: 1.94 µM
- TGI [35]: 3.65 µM
- GI50 [36]: 1.77 µM
- TGI [36]: 5.31 µM
- GI50 [37]: 1.75 µM
- TGI [37]: 3.27 µM
- GI50 [38]: 0.648 µM
- TGI [38]: > 100 µM
- GI50 [39]: 1.92 µM
- TGI [39]: 4.25 µM
- GI50 [40]: 6.23 µM
- TGI [40]: > 100 µM
- GI50 [41]: 6.57 µM
- TGI [41]: 19.6 µM
- GI50 [42]: 1.97 µM
- TGI [42]: 3.53 µM
- GI50 [43]: 2.18 µM
- TGI [43]: 6.3 µM
- GI50 [44]: 1.83 µM
- TGI [44]: 12 µM
- GI50 [45]: 2.37 µM
- TGI [45]: > 100 µM
- GI50 [46]: 1.09 µM
- TGI [46]: 2.92 µM
- GI50 [47]: 2.28 µM
- TGI [47]: 6.84 µM
- GI50 [48]: 1.7 µM
- TGI [48]: 3.09 µM
- GI50 [49]: 1.92 µM
- TGI [49]: 3.72 µM
- GI50 [50]: 1.83 µM
- TGI [50]: 3.53 µM
- GI50 [51]: 12.8 µM
- TGI [51]: 26.8 µM
- GI50 [52]: 1.66 µM
- TGI [52]: 3.77 µM
- GI50 [53]: 1.6 µM
- TGI [53]: 2.99 µM
- GI50 [54]: 2.11 µM
- TGI [54]: 4.89 µM
- GI50 [55]: 1.88 µM
- TGI [55]: 3.57 µM
- GI50 [56]: 27.2 µM
- TGI [56]: > 100 µM
- GI50 [57]: 1.26 µM
- TGI [57]: 2.92 µM

Structure (SMILES): O=C(CNc1ccccc1Cl)Nn1c(-c2ccccc2)nc2ccccc2c1=O
- TGI [1]: > 100 µM
- TGI [2]: 36.8 µM
- TGI [3]: > 100 µM
- TGI [4]: > 100 µM
- TGI [5]: 29.5 µM
- TGI [6]: > 10 µM
- TGI [7]: 39.8 µM
- TGI [9]: 21.8 µM
- TGI [10]: > 10 µM
- TGI [11]: 97.6 µM
- TGI [12]: 33 µM
- TGI [13]: 91.1 µM
- TGI [14]: > 100 µM
- TGI [15]: 48.3 µM
- TGI [16]: 31.4 µM
- TGI [17]: > 100 µM
- TGI [18]: 99 µM
- TGI [19]: 43.6 µM
- TGI [20]: > 10 µM
- TGI [21]: 29.4 µM
- TGI [22]: > 100 µM
- TGI [23]: 57.7 µM
- TGI [24]: 93.4 µM
- TGI [25]: 89.5 µM
- TGI [26]: 34.6 µM
- TGI [27]: > 100 µM
- TGI [28]: > 100 µM
- TGI [29]: > 100 µM
- TGI [31]: 37.4 µM
- TGI [32]: > 100 µM
- TGI [33]: > 10 µM
- TGI [34]: > 100 µM
- TGI [35]: > 10 µM
- TGI [36]: 65.7 µM
- TGI [37]: 75.4 µM
- TGI [38]: 97.2 µM
- TGI [39]: 40.8 µM
- TGI [40]: 87.1 µM
- TGI [41]: 40.2 µM
- TGI [42]: 55.9 µM
- TGI [43]: 81.1 µM
- TGI [44]: 63 µM
- TGI [45]: 70.5 µM
- TGI [46]: 39.7 µM
- TGI [47]: > 100 µM
- TGI [48]: 25.5 µM
- TGI [50]: > 100 µM
- TGI [51]: 72.9 µM
- TGI [52]: > 10 µM
- TGI [53]: 36.7 µM
- TGI [55]: > 10 µM
- TGI [56]: > 100 µM

Structure (SMILES): O=C1CN2C(c3ccccc3)=NN(c3ccc([N+](=O)[O-])cc3)C2(c2ccccc2)c2cc(Cl)ccc2N1CC1CC1 (stereo unspecified)
- TGI [1]: > 100 µM
- TGI [2]: > 100 µM
- TGI [3]: > 100 µM
- TGI [4]: > 100 µM
- TGI [5]: > 100 µM
- TGI [6]: > 100 µM
- TGI [7]: > 100 µM
- TGI [9]: > 100 µM
- TGI [10]: > 100 µM
- TGI [11]: > 100 µM
- TGI [12]: > 100 µM
- TGI [13]: > 100 µM
- TGI [14]: > 100 µM
- TGI [15]: > 100 µM
- TGI [16]: > 100 µM
- TGI [17]: > 100 µM
- TGI [18]: > 100 µM
- TGI [19]: > 100 µM
- TGI [20]: > 100 µM
- TGI [21]: > 100 µM
- TGI [22]: > 100 µM
- TGI [23]: > 100 µM
- TGI [24]: > 100 µM
- TGI [25]: > 100 µM
- TGI [26]: > 100 µM
- TGI [27]: > 100 µM
- TGI [28]: > 100 µM
- TGI [29]: > 100 µM
- TGI [30]: > 100 µM
- TGI [31]: > 100 µM
- TGI [32]: > 100 µM
- TGI [33]: > 100 µM
- TGI [34]: > 100 µM
- TGI [35]: > 100 µM
- TGI [37]: > 100 µM
- TGI [38]: > 100 µM
- TGI [39]: > 100 µM
- TGI [40]: > 100 µM
- TGI [41]: > 100 µM
- TGI [42]: > 100 µM
- TGI [43]: > 100 µM
- TGI [44]: > 100 µM
- TGI [45]: > 100 µM
- TGI [46]: > 100 µM
- TGI [47]: > 100 µM
- TGI [48]: > 100 µM
- TGI [49]: > 100 µM
- TGI [50]: > 100 µM
- TGI [51]: > 100 µM
- TGI [52]: > 100 µM
- TGI [53]: > 100 µM
- TGI [54]: > 100 µM
- TGI [55]: > 100 µM
- TGI [56]: > 100 µM
- TGI [57]: > 100 µM
